# In article PMC6791383, “A side-by-side evaluation of [^18F]FDOPA enantiomers for non-invasive detection of neuroendocrine tumors by positron emission tomography” (Oncotarget, 2019):
# Where “and” joins values, the source holds several entries; their conditions need not be identical. Equal values may be shown once.
# Experiments:
# [1] = tested on: LAT1; set-up: method as in PMID 21770378, PMID 11901210, PMID 25205473, PMID 30048132; conditions: cited from earlier work
# [2] = tested on: PC12 xenografts; test: Ex vivo biodistribution in NSG mice bearing PC12 xenografts; conditions: PC12 xenograft NSG mice, 1.5MBq i.v.
# Description: (§1) All animal studies were carried out according to regulations set forth and approved by the Johns Hopkins Animal Care and Use Committee. Female, 6- to 8-weeks-old immunodeficient NOD scid gamma (NSG) mice were subcutaneously inoculated with 1 million PC12, STC-1 or COLO-320 cells in […] of Hank’s balanced salt solution in the top flank. Tumors of 4–6 mm in diameter (typically 14-21 days post inoculation) were utilized for in vivo imaging or ex vivo biodistribution studies.
# (§2) Mice (n=5 per group) were intravenously injected with 1.5MBq (40μCi) of each tracer in 150μL of saline. Ex vivo biodistribution studies were performed at 30min and 120min time points after tracer administration. Blood, liver, spleen, heart, lungs, kidneys, small intestines, stomach, muscle, fat, bone, bladder, brain and tumor tissues were retrieved, weighed, and counted in an automated gamma counter (1282 Compugamma CS). Percentage injected dose per gram (%ID/g) values were calculated based on normalization to external standards, counted in triplicate, and accounted for signal-decay correction.
# [3] = tested on: NET xenografts (STC-1, PC12, COLO-320); test: Ex vivo biodistribution, across all NET mouse models; type: in vivo, mice; conditions: for brain accumulation, average in all NET mice: average over STC-1, COLO-320 and PC12 mice
# Description: as §1, §2
# [4] = tested on: PC12 xenografts; test: In vivo PET-CT quantitative image analysis, PC12 xenografts; conditions: PC12 tumors, NSG mice, 9MBq
# Description: as §1
# (§3) Mice (n=4) were injected with 9MBq (250μCi) of each tracer in 150μL of saline intravenously and anesthetized with 3% isoflurane prior to being placed on the scanner bed. Mice were kept warm with an external light source and maintained at 1% isoflurane levels while being scanned. PET imaging (2 beds; 10 min per bed) was carried out using an ARGUS small-animal PET/CT scanner (Sedecal). A CT scan (512 projections) was obtained at the end of each PET scan for anatomical co-registration. For in vivo blocking experiments, mice were injected with 10meq of LAT1 inhibitor. PET data were reconstructed using the 2-dimensional ordered subsets-expectation maximization algorithm (2D-OSEM) and corrected for dead time and radioactive decay. Data visualization and image generation were carried out using Amira 2019.1 (ThermoFisher Scientific).
# (§4) Quantitative in vivo image analysis was carried out in AMIDE (SourceForge) 1.0.4 utilizing ellipsoid region-of-interest volume integrations with 3 slices entailing a depth of 1.9 mm per slice. The %ID per cc values were calculated based on a calibration factor obtained from a phantom (known radioactive quantity in a known volume).
# [5] = tested on: PC12 cells; test: In vitro uptake (binding) assay in PC12 cells; type: cell-based; conditions: 30mins incubation, 1 million cells
# Description: (§5) Both [^18F]FDOPA enantiomers were initially assessed in vitro in all NET cells.
# (§6) In vitro binding assays were carried out, in triplicate, in PBS with 0.5% FBS, for 30mins at ambient temperatures using 1 million cells and repeated three times. Blocking studies were carried out using 10meq of the commercial LAT1 inhibitor, 2-Aminobicyclo[2.2.1]heptane-2-carboxylic acid (TOCRIS, MN, USA). Following incubation with each tracer, cells were rinsed three times with cold PBS prior to being counted on an automated gamma counter (1282 Compugamma CS; Pharmacia/LKBNuclear, Inc.) along with external standards. Obtained counts were converted into percentage incubated dose per million cells based on normalization to external standards. Experiments were performed in triplicate and repeated three times.
# [6] = tested on: COLO-320 xenografts; test: Ex vivo biodistribution in NSG mice bearing COLO-320 xenografts; conditions: for small intestines retention, fold higher than tumor uptake: COLO-320 mice
# Description: as §1, §2
# [7] = tested on: LAT1; test: In vivo PET-CT blocking by BCH in NET mouse models; set-up: species or system mice; conditions: all NET mouse models (PC12, STC-1, COLO-320), 10meq LAT1 inhibitor
# Description: as §3, §4
# [8] = tested on: STC-1 cells; test: In vitro uptake (binding) assay in STC-1 cells; type: cell-based; conditions: 30mins incubation, 1 million cells, % incubated dose/million cells
# Description: as §5, §6
# [9] = tested on: STC-1 xenografts; test: Ex vivo biodistribution in NSG mice bearing STC-1 xenografts; conditions: STC-1 xenograft NSG mice, 1.5MBq i.v.
# Description: as §1, §2
# [10] = tested on: STC-1 xenografts; test: In vivo PET-CT quantitative image analysis, STC-1 xenografts; conditions: STC-1 tumors, NSG mice, 9MBq
# Description: as §1, §3, §4
# [11] = tested on: COLO-320 xenografts; test: In vivo PET-CT quantitative image analysis, COLO-320 xenografts; conditions: COLO-320 tumors, NSG mice, 9MBq
# Description: as §1, §3, §4
# [12] = COLO-320 xenograft NSG mice, 30min p.i., 1.5MBq i.v.
# [13] = COLO-320 xenograft NSG mice, 120min p.i., 1.5MBq i.v.
compound,measurement,setting,value
"N[C@H](Cc1ccc(O)c(O)c1)C(=O)O [D-DOPA, 3,4-dihydroxy-D-phenylalanine]",IC50,[1],46 ± 23 µM
"N[C@@H](Cc1ccc(O)c(O)c1)C(=O)O [L-DOPA, 3,4-dihydroxy-L-phenylalanine]",IC50,[1],69 ± 29 µM
"N[C@@H](Cc1cc(O)c(O)cc1[18F])C(=O)O [L-[^18F]FDOPA, 3,4-dihydroxy-6-[^18F]fluoro-L-phenylalanine]","Biodistribution, Bladder",[2]; 30min p.i.,7.24 %ID/g
same,"Biodistribution, Blood",[2]; 30min p.i.,4.14 %ID/g
same,"Biodistribution, Bone",[2]; 30min p.i.,3.86 %ID/g
same,"Biodistribution, Brain",[2]; 30min p.i.,1.90 %ID/g
same,"Biodistribution, Fat",[2]; 30min p.i.,1.25 %ID/g
same,"Biodistribution, Heart",[2]; 30min p.i.,2.96 %ID/g
same,"Biodistribution, Kidneys",[2]; 30min p.i.,14.60 %ID/g
same,"Biodistribution, Liver",[2]; 30min p.i.,8.59 %ID/g
same,"Biodistribution, Lungs",[2]; 30min p.i.,4.57 %ID/g
same,"Biodistribution, Muscle",[2]; 30min p.i.,4.70 %ID/g
same,"Biodistribution, Pancreas",[2]; 30min p.i.,50.08 %ID/g
same,"Biodistribution, Small Intestines",[2]; 30min p.i.,11.50 %ID/g
same,"Biodistribution, Spleen",[2]; 30min p.i.,4.30 %ID/g
same,"Biodistribution, Stomach",[2]; 30min p.i.,9.04 %ID/g
same,"Biodistribution, Bladder",[2]; 120min p.i.,14.06 %ID/g
same,"Biodistribution, Blood",[2]; 120min p.i.,2.19 %ID/g
same,"Biodistribution, Bone",[2]; 120min p.i.,7.19 %ID/g
same,"Biodistribution, Brain",[2]; 120min p.i.,1.31 %ID/g
same,"Biodistribution, Fat",[2]; 120min p.i.,1.78 %ID/g
same,"Biodistribution, Heart",[2]; 120min p.i.,2.45 %ID/g
same,"Biodistribution, Kidneys",[2]; 120min p.i.,4.84 %ID/g
same,"Biodistribution, Liver",[2]; 120min p.i.,3.01 %ID/g
same,"Biodistribution, Lungs",[2]; 120min p.i.,2.43 %ID/g
same,"Biodistribution, Muscle",[2]; 120min p.i.,3.48 %ID/g
same,"Biodistribution, Pancreas",[2]; 120min p.i.,36.66 %ID/g
same,"Biodistribution, Small Intestines",[2]; 120min p.i.,10.02 %ID/g
same,"Biodistribution, Spleen",[2]; 120min p.i.,6.11 %ID/g
same,"Biodistribution, Stomach",[2]; 120min p.i.,8.28 %ID/g
same,"brain accumulation, average in all NET mice",[3]; 30min p.i.,2.21±0.17 %ID/g
same,"brain accumulation, average in all NET mice",[3]; 120min p.i.,1.22±0.16 %ID/g
same,"tumor uptake, fold higher in STC-1 than in COLO-320 tumors",[3]; STC-1 vs COLO-320 tumors,> 2 fold
same,"tumor uptake, quantitative PET image analysis",[4]; 30min post i.v. injection,35.73±2.50 %ID/cc
same,"tumor uptake, quantitative PET image analysis",[4]; 120min post i.v. injection,18.82±1.55 %ID/cc
same,in vitro uptake,[5],19.73±0.71 % (incubated dose/million cells)
same,"small intestines retention, fold higher than tumor uptake",[6]; 30min,5 fold
same,"small intestines retention, fold higher than tumor uptake",[6]; 120min,3 fold
same,"Biodistribution, Bladder",[6]; [12],8.38 %ID/g
same,"Biodistribution, Blood",[6]; [12],5.53 %ID/g
same,"Biodistribution, Bone",[6]; [12],5.05 %ID/g
same,"Biodistribution, Brain",[6]; [12],2.58 %ID/g
same,"Biodistribution, Fat",[6]; [12],0.95 %ID/g
same,"Biodistribution, Heart",[6]; [12],3.85 %ID/g
same,"Biodistribution, Kidneys",[6]; [12],13.60 %ID/g
same,"Biodistribution, Liver",[6]; [12],10.68 %ID/g
same,"Biodistribution, Lungs",[6]; [12],6.11 %ID/g
same,"Biodistribution, Muscle",[6]; [12],5.27 %ID/g
same,"Biodistribution, Pancreas",[6]; [12],57.82 %ID/g
same,"Biodistribution, Small Intestines",[6]; [12],15.72 %ID/g
same,"Biodistribution, Spleen",[6]; [12],5.72 %ID/g
same,"Biodistribution, Stomach",[6]; [12],11.27 %ID/g
same,"Biodistribution, Tumor",[6]; [12],5.15 %ID/g
same,"Biodistribution, Bladder",[6]; [13],14.73 %ID/g
same,"Biodistribution, Blood",[6]; [13],2.44 %ID/g
same,"Biodistribution, Bone",[6]; [13],7.40 %ID/g
same,"Biodistribution, Brain",[6]; [13],1.28 %ID/g
same,"Biodistribution, Fat",[6]; [13],1.76 %ID/g
same,"Biodistribution, Heart",[6]; [13],2.74 %ID/g
same,"Biodistribution, Kidneys",[6]; [13],4.16 %ID/g
same,"Biodistribution, Liver",[6]; [13],2.85 %ID/g
same,"Biodistribution, Lungs",[6]; [13],2.55 %ID/g
same,"Biodistribution, Muscle",[6]; [13],4.40 %ID/g
same,"Biodistribution, Pancreas",[6]; [13],37±5.43 %ID/g and 37.13 %ID/g
same,"Biodistribution, Small Intestines",[6]; [13],8.66 %ID/g
same,"Biodistribution, Spleen",[6]; [13],6.72 %ID/g
same,"Biodistribution, Stomach",[6]; [13],7.99 %ID/g
same,tumor uptake after in vivo blocking by BCH,[7],significantly reduced
same,in vitro uptake,[8],2.97±0.07%
same,"Biodistribution, Bladder",[9]; 30min p.i.,5.15 %ID/g
same,"Biodistribution, Blood",[9]; 30min p.i.,3.94 %ID/g
same,"Biodistribution, Bone",[9]; 30min p.i.,3.09 %ID/g
same,"Biodistribution, Brain",[9]; 30min p.i.,2.16 %ID/g
same,"Biodistribution, Fat",[9]; 30min p.i.,1.34 %ID/g
same,"Biodistribution, Heart",[9]; 30min p.i.,2.72 %ID/g
same,"Biodistribution, Kidneys",[9]; 30min p.i.,8.90 %ID/g
same,"Biodistribution, Liver",[9]; 30min p.i.,4.87 %ID/g
same,"Biodistribution, Lungs",[9]; 30min p.i.,4.13 %ID/g
same,"Biodistribution, Muscle",[9]; 30min p.i.,3.63 %ID/g
same,"Biodistribution, Pancreas",[9]; 30min p.i.,44.22 %ID/g
same,"Biodistribution, Small Intestines",[9]; 30min p.i.,16.04±2.47 %ID/g and 16.43 %ID/g
same,"Biodistribution, Spleen",[9]; 30min p.i.,3.98 %ID/g
same,"Biodistribution, Stomach",[9]; 30min p.i.,8.97 %ID/g
same,"Biodistribution, Tumor",[9]; 30min p.i.,11.06 %ID/g
same,"Biodistribution, Bladder",[9]; 120min p.i.,8.80 %ID/g
same,"Biodistribution, Blood",[9]; 120min p.i.,1.47 %ID/g
same,"Biodistribution, Bone",[9]; 120min p.i.,5.40 %ID/g
same,"Biodistribution, Brain",[9]; 120min p.i.,1.07 %ID/g
same,"Biodistribution, Fat",[9]; 120min p.i.,0.78 %ID/g
same,"Biodistribution, Heart",[9]; 120min p.i.,2.34 %ID/g
same,"Biodistribution, Kidneys",[9]; 120min p.i.,4.00 %ID/g
same,"Biodistribution, Liver",[9]; 120min p.i.,1.73 %ID/g
same,"Biodistribution, Lungs",[9]; 120min p.i.,1.89 %ID/g
same,"Biodistribution, Muscle",[9]; 120min p.i.,2.75 %ID/g
same,"Biodistribution, Pancreas",[9]; 120min p.i.,20±0.89 %ID/g and 20.71 %ID/g
same,"Biodistribution, Small Intestines",[9]; 120min p.i.,5.08 %ID/g
same,"Biodistribution, Spleen",[9]; 120min p.i.,6.55 %ID/g
same,"Biodistribution, Stomach",[9]; 120min p.i.,6.83 %ID/g
same,"Biodistribution, Tumor",[9]; 120min p.i.,6.98 %ID/g
same,"tumor uptake, quantitative PET image analysis",[10]; 30min post i.v. injection,33.29±1.66 %ID/cc
same,"tumor uptake, quantitative PET image analysis",[10]; 120min post i.v. injection,10.38±1.31 %ID/cc
same,"tumor uptake, quantitative PET image analysis",[11]; 30min post i.v. injection,11.99±0.50 %ID/cc
same,"tumor uptake, quantitative PET image analysis",[11]; 120min post i.v. injection,15.10±1.30 %ID/cc
